# In paper PMC11117721, “A Fast-Binding, Functionally Reversible, COX-2 Radiotracer for CNS PET Imaging” (ACS Central Science, 2024):
# Several values for one entry are separate records, joined by “and”; a condition that tells them apart may be missing. Equal entries are not always repeated.
# Legend:
# [1] = target: T1, COX-2 (Homo sapiens, UniProt P35354); experiment: LCMS-based biochemical COX-2 assay (arachidonic acid to PGE2), short 2 min enzyme-inhibitor incubation; details: COX2 IC50 (nM, 2 min), LCMS readout
# T1 sequence (P35354 18-604): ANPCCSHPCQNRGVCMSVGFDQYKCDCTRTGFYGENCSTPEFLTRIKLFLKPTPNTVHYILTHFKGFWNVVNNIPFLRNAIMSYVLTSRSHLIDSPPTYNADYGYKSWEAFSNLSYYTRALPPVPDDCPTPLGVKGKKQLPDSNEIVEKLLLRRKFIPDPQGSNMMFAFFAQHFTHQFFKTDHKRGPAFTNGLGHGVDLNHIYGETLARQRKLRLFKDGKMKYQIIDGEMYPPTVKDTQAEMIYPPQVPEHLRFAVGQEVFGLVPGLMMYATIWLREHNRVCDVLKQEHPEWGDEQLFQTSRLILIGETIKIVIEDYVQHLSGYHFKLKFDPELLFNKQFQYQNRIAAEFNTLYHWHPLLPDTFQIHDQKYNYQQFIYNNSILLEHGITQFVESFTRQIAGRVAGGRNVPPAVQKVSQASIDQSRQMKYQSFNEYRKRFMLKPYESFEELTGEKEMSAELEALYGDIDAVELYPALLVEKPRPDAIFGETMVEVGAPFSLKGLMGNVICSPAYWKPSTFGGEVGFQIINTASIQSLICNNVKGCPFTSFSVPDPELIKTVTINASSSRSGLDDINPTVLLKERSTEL
# Text: To anticipate fast washout pharmacokinetics in vivo, we utilized simple plasma and brain protein binding assays to maximize the unbound fraction. […] Previous COX-2 discovery relied on whole blood assays to measure COX-2 inhibition. Focusing on fast-binding inhibitors, we prioritized SAR derived from a rapid inhibition LCMS-based enzymatic assay.
# [2] = Plasma protein binding (fraction unbound in plasma, Fup); assay type: in vitro ADME, mouse; details: for Fup: as fraction, plasma protein binding; for Fup (mouse, %): mouse plasma
# Text: (§1) To select the best starting point for COX-2 radiotracer development, we extensively profiled a large set of known COX-2 selective inhibitors. Our primary focus was to identify a ligand with high binding affinity, COX-2 selectivity over COX-1, fast on-rate binding kinetics and improved free fraction in plasma to maximize the signal-to-noise ratio in PET imaging experiments. […] To anticipate fast washout pharmacokinetics in vivo, we utilized simple plasma and brain protein binding assays to maximize the unbound fraction.
# [3] = Brain protein binding (fraction unbound in brain, Fub); assay type: in vitro ADME
# Text: as §1
# [4] = Permeability (Papp); assay type: in vitro ADME; details: not told
# [5] = target: P-gp (Homo sapiens, UniProt P08183); experiment: Efflux ratio (ER) / P-gp efflux; assay type: in vitro ADME; details: for ER: efflux ratio
# Chain of P-gp (P08183 whole entry): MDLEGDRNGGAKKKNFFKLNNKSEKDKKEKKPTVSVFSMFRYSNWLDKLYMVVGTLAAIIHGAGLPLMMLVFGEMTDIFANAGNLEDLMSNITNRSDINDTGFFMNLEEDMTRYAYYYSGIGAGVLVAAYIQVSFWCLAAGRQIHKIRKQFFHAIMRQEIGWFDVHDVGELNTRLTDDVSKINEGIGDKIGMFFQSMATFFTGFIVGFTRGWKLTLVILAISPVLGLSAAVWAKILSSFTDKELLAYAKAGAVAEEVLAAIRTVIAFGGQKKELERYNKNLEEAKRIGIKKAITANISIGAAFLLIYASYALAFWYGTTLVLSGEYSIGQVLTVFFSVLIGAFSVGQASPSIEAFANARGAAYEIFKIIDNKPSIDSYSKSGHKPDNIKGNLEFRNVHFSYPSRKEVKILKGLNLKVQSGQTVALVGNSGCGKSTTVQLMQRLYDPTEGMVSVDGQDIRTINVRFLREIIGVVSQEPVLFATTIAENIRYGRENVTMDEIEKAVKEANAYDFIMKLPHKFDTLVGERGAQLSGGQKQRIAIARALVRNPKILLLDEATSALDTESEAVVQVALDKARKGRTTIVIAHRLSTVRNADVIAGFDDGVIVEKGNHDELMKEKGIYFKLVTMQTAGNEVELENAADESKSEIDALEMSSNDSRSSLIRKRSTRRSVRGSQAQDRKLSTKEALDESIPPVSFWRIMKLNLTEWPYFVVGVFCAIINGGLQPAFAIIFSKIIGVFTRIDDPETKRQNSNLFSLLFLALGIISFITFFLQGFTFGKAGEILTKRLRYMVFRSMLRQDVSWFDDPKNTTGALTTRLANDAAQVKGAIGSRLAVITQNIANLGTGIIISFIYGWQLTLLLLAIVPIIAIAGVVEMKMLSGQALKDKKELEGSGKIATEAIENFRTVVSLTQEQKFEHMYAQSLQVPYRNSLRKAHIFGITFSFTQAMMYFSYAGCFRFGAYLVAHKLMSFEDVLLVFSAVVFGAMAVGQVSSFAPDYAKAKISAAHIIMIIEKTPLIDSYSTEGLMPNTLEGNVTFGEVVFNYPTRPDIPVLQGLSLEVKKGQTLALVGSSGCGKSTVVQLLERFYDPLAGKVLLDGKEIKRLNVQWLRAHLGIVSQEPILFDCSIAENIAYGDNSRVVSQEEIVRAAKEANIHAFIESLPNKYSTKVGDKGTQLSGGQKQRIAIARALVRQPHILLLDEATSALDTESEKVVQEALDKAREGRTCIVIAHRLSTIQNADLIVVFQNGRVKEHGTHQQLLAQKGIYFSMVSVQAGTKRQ
# [6] = target: T1, COX-2; experiment: Lipophilic ligand efficiency (LLE)
# [7] = Aqueous solubility in PBS; assay type: physicochemical; details: aqueous buffer, read-out: Aq. Sol. (PBS)
# [8] = tested on: COX-2; parameters: method as in earlier work; details: human brain PET; cited from earlier work
IC50 [1],fold improvement in plasma protein binding (PPB) ([2]; BRD1158 compared to MC1) [fold],Fup [2],"Fup (mouse, %) [2] [%]","Fub (mouse, %) [3] [%]",Papp [4] [×10⁻⁶ cm/s],ER [5],P-gp efflux ([5]; result in words),LLE [6],solubility [7] [µM],SMILES,specific binding of the tracer (of the total uptake) [8]
24.6 nM and 25 nM,4,0.091,9.1,2.2,50.8,0.9,no P-gp efflux,4.78,–,CS(=O)(=O)c1ccc(-c2cccc(NCc3ccoc3)n2)cc1 [BRD1158],–
3.4 nM and 3 nM,–,–,0.4,0,33.7,0.9,–,4.8,–,CS(=O)(=O)c1ccc(-c2cccc(OCc3cccs3)n2)cc1 [BRD2369],–
–,–,0.024,2.4,0.75,36.5,–,–,–,3.4,"COc1cc(NCc2cccs2)nc(-c2ccc(S(C)(=O)=O)cc2)n1 [MC1, reference compound]",–
–,–,–,–,–,–,–,–,–,–,CS(=O)(=O)c1ccc(-c2nc(NCc3cccs3)cc(O[11CH3])n2)cc1 [[^11C]MC1],10%–20%
